Test results as given in ChEMBL document CHEMBL1135456, “Inhibition of MIF bioactivity by rational design of pharmacological inhibitors of MIF tautomerase activity” (J Med Chem, 2002).

These compounds were tested against T1, Macrophage migration inhibitory factor (Homo sapiens, UniProt P14174) (assay: Inhibition of human macrophage migration inhibitory factor tautomerase (MIF) activity).
T1 sequence (P14174 whole entry): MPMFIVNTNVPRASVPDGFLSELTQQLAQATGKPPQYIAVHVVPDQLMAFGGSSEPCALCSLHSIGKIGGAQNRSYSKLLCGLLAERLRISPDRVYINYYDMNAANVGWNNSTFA

Structure (SMILES) | IC50 [µM]
COC(=O)[C@H](CC(C)C)/N=C/c1ccc(O)cc1 | > 100
COC(=O)[C@H](C)/N=C/c1ccc(O)cc1 | > 100
COC(=O)[C@H](CCSC)/N=C/c1ccc(O)cc1 | 100

The remaining lines, values ahead:

IC50 [µM] | Structure (SMILES)
10 | COC(=O)[C@@H](Cc1ccc(O)cc1)/N=C/c1ccc(O)cc1
100 | COC(=O)[C@H](CO)/N=C/c1ccc(O)cc1
70 | CC[C@H](/N=C/c1ccc(O)cc1)C(=O)OC
50 | COC(=O)[C@@H](Cc1ccccc1)/N=C/c1ccc(O)cc1
